Test results taken from the NIST ThermoML archive (doi:10.1016/j.fluid.2006.01.017).
Numbers after ± are expanded uncertainties.

What was measured:
[1] = refractive index (Na D-line) (dimensionless); conditions: 293.2 K; 101.33 kPa; Liquid; Standard Abbe refractometry
[2] = 293.2 K; 101.33 kPa; Liquid

CCO [ethanol]
refractive index [1]: 1.36 ± 0.0004

CCOC(C)=O [ethyl acetate]
mass density [2]: 900.6 ± 0.3 kg/m3
refractive index [1]: 1.3702 ± 0.0004
